Source: ChEMBL document CHEMBL4483862, “Open-source discovery of chemical leads for next-generation chemoprotective antimalarials” (2018)

Tested on: Plasmodium berghei
Assay: Luciferase/luciferin-expressing antifolate-resistant parasites were used to infect a culture of HepG2 cells that were pre-incubated with compounds. Infected hepatocytes emit light due to the luciferase reaction. Assay results are presented as the percent inhibition of light emission compared to control. […]
Format: functional
Conditions: sporozoite; for IC90: read-out: LUCIFERASE INFECTION ASSAY - IC90
[1] = read-out: LUCIFERASE INFECTION ASSAY - IC50

SMILES | IC90 | other results
C=CCN(c1ccccc1)S(=O)(=O)c1cc(C(=O)NCC2(N3CCCCC3)CCCCC2)ccc1Cl | > 10 µM | IC50 (HEPG2TOX_HILL_SLOPE 0.94, HEPG2TOX_R_SQUARED 0.4, PBLUC_HILL_SLOPE 1.67, PBLUC_R_SQUARED 0.0797, read-out: LUCIFERASE INFECTION ASSAY - IC50): 5.22 µM
Cc1cc(NC(=O)N2CCN(Cc3cccc4ccccc34)CC2)no1 | > 10 µM | IC50 (PBLUC_HILL_SLOPE 2.02, PBLUC_R_SQUARED 0.015, read-out: LUCIFERASE INFECTION ASSAY - IC50): > 10 µM
Cn1ccnc1/C(=N\NC(=O)c1sc2ccccc2c1Cl)c1cccc([N+](=O)[O-])c1 | > 10 µM | IC50 [1]: > 10 µM
Cc1c(Cl)cccc1-c1ccc(C(=O)NCc2ccco2)o1 | > 10.5 µM | IC50 [1]: > 10.5 µM
CC(Nc1ccc2c(c1)CCC2)C(=O)Nc1sccc1C(N)=O (stereo not drawn) | 1.74 µM | IC50 (HEPG2TOX_HILL_SLOPE 0.241, HEPG2TOX_R_SQUARED 0.874, PBLUC_HILL_SLOPE 11.9, PBLUC_R_SQUARED 0.588, read-out: LUCIFERASE INFECTION ASSAY - IC50): 1.45 µM
CCCCNc1nc2ccccc2n1CC(=O)Nc1ccc(S(=O)(=O)N2CCCC2)cc1 | > 10 µM | IC50 (PBLUC_HILL_SLOPE 1.82, PBLUC_R_SQUARED 0.488, read-out: LUCIFERASE INFECTION ASSAY - IC50): 3.67 µM
Cc1cc(C(=O)OCC(=O)Nc2cccc(C#N)c2)c(C)n1-c1ccccc1 | > 10 µM | IC50 (HEPG2TOX_HILL_SLOPE 2.12, HEPG2TOX_R_SQUARED 0.531, read-out: LUCIFERASE INFECTION ASSAY - IC50): > 10 µM
O=C(Nc1ccc(Cl)cc1)Nc1nc(-c2cc(Cl)sc2Cl)cs1 | 7.79 µM | IC50 (FFLUC_HILL_SLOPE 2.44, FFLUC_R_SQUARED 0.604, PBLUC_HILL_SLOPE 2.52, PBLUC_R_SQUARED 0.549, read-out: LUCIFERASE INFECTION ASSAY - IC50): 3.26 µM
CCS(=O)(=O)N1CCC(C(=O)Nc2nnc(-c3cccc([N+](=O)[O-])c3)o2)(c2ccccc2)CC1 | 4.58 µM | IC50 (HEPG2TOX_HILL_SLOPE 16.8, 22.3, HEPG2TOX_R_SQUARED 0.565, 0.956, PBLUC_HILL_SLOPE 8.45, PBLUC_R_SQUARED 0.439, read-out: LUCIFERASE INFECTION ASSAY - IC50): 3.53 µM
C=CCN(c1ccccc1OC)S(=O)(=O)c1cccc(C(=O)Oc2c(Cl)cc(Cl)c3ccc(C)nc23)c1 | 6.11 µM | IC50 (PBLUC_HILL_SLOPE 68.6, PBLUC_R_SQUARED 0.538, read-out: LUCIFERASE INFECTION ASSAY - IC50): 5.92 µM
CS(=O)(=O)Nc1cccc(-c2cn3c(-c4ccc(Cl)cc4)cnc3cn2)c1 | 1.05 µM | IC50 (HEPG2TOX_HILL_SLOPE 10.9, HEPG2TOX_R_SQUARED 0.801, PBLUC_HILL_SLOPE 12.2, PBLUC_R_SQUARED 0.805, read-out: LUCIFERASE INFECTION ASSAY - IC50): 0.873 µM
Cc1onc(-c2ccccc2Cl)c1NC(=O)Nc1cc(C(F)(F)F)cc(C(F)(F)F)c1 | 6.51 µM | IC50 (PBLUC_HILL_SLOPE 3.23, PBLUC_R_SQUARED 0.494, read-out: LUCIFERASE INFECTION ASSAY - IC50): 3.3 µM
CCC(C)NC(=O)c1c(NC(=O)C(C)Oc2ccccc2)nc2ccc(C)cn12 (stereo not drawn) | > 8.37 µM | IC50 (PBLUC_HILL_SLOPE 12.7, PBLUC_R_SQUARED 0.125, read-out: LUCIFERASE INFECTION ASSAY - IC50): 7.88 µM
CCOc1cccc(-c2cn3c(-c4cnn(C)c4)cnc3cn2)c1 | > 10.3 µM | IC50 (HEPG2TOX_HILL_SLOPE 7.89, HEPG2TOX_R_SQUARED 0.0776, PBLUC_HILL_SLOPE 1.98, PBLUC_R_SQUARED 0.483, read-out: LUCIFERASE INFECTION ASSAY - IC50): 3.78 µM
CC(C)(C)CC(C)(C)NC(=O)c1cccc(S(=O)(=O)N2CCc3ccccc32)c1 | > 10 µM | IC50 (HEPG2TOX_HILL_SLOPE 2.33, HEPG2TOX_R_SQUARED 0.906, PBLUC_HILL_SLOPE 19.2, PBLUC_R_SQUARED 0.577, read-out: LUCIFERASE INFECTION ASSAY - IC50): 9.58 µM
COc1ccc(-c2nn(-c3ccccc3)cc2/C=C/C(=O)NCCc2cn3ccccc3n2)cc1OC | > 10 µM | IC50 (PBLUC_HILL_SLOPE 1.11, PBLUC_R_SQUARED 0.206, read-out: LUCIFERASE INFECTION ASSAY - IC50): > 10 µM
O=C(CN1CCN(Cc2cc(=O)oc3cc4c(cc23)CCC4)CC1)Nc1ccc(Cl)c(C(F)(F)F)c1 | > 10 µM | IC50 (PBLUC_HILL_SLOPE 2.35, PBLUC_R_SQUARED 0.537, read-out: LUCIFERASE INFECTION ASSAY - IC50): 5.82 µM
O=C(NNC(=O)c1cc2c(s1)CCC2)c1csc(COc2ccc(F)cc2)n1 | 8.59 µM | IC50 (PBLUC_HILL_SLOPE 2.84, PBLUC_R_SQUARED 0.402, read-out: LUCIFERASE INFECTION ASSAY - IC50): 3.96 µM
COc1ccc(-c2nnc(SCC(=O)Nc3cc(-c4cc(C)c(C)cc4C)nn3-c3ccccc3)n2C(C)C)cc1 | > 10 µM | IC50 [1]: > 10 µM
Cn1c(N)c(C(=O)COC(=O)c2oc3ccccc3c2CSC2CCCCC2)c(=O)n(C)c1=O | > 10 µM | IC50 [1]: > 10 µM

SMILES | IC90 | other results
CNc1snc(C)c1C(=O)NCC(c1cccs1)c1c[nH]c2ccccc12 (stereo not drawn) | 9.68 µM | IC50 (PBLUC_HILL_SLOPE 9.74, PBLUC_R_SQUARED 0.4, read-out: LUCIFERASE INFECTION ASSAY - IC50): 7.72 µM
O=C(Nc1ccc(Cl)c(S(=O)(=O)N2CCCC2)c1)c1[nH]nc2ccccc12 | > 10 µM | IC50 (HEPG2TOX_HILL_SLOPE 0.202, HEPG2TOX_R_SQUARED 0.183, PBLUC_HILL_SLOPE 12.1, PBLUC_R_SQUARED 0.78, read-out: LUCIFERASE INFECTION ASSAY - IC50): 9.03 µM
O=C(Nc1nc(-c2ccccn2)cs1)c1ccc(=O)n(Cc2ccccc2)n1 | 9.95 µM | IC50 (PBLUC_HILL_SLOPE 15.2, PBLUC_R_SQUARED 0.0748, read-out: LUCIFERASE INFECTION ASSAY - IC50): 8.61 µM
O=C1/C(=C/c2ccc(F)cc2)CCC/C1=C\c1ccc(F)cc1 | > 10.6 µM | IC50 (HEPG2TOX_HILL_SLOPE 7.08, HEPG2TOX_R_SQUARED 0.955, read-out: LUCIFERASE INFECTION ASSAY - IC50): > 10.6 µM
O=C(Nc1nn[nH]n1)c1ccc(S(=O)(=O)N2CCCCCC2)cc1 | 9.99 µM | IC50 (PBLUC_HILL_SLOPE 18.6, PBLUC_R_SQUARED 0.124, read-out: LUCIFERASE INFECTION ASSAY - IC50): 8.88 µM
COc1ccc(C(C)C)cc1-c1cc(N2CCCC2CO)n2nccc2n1 (stereo not drawn) | 6.95 µM | IC50 (HEPG2TOX_HILL_SLOPE 1.35, HEPG2TOX_R_SQUARED 0.737, PBLUC_HILL_SLOPE 1.83, PBLUC_R_SQUARED 0.512, read-out: LUCIFERASE INFECTION ASSAY - IC50): 2.09 µM
COc1cccc(-c2noc(COC(=O)c3ccc(C)s3)n2)c1 | > 10 µM | IC50 [1]: > 10 µM
CC(=O)Oc1cccc(C(=O)N2CC3ON=C(c4c(F)cccc4Cl)C3C2)c1C (stereo not drawn) | > 10 µM | IC50 [1]: > 10 µM
CC(C)c1ccc(Nc2nccc3nc(-c4cccc(C(C)C)c4)[nH]c23)cc1 | > 10 µM | IC50 (HEPG2TOX_HILL_SLOPE 1.74, HEPG2TOX_R_SQUARED 0.684, PBLUC_HILL_SLOPE 1.1, PBLUC_R_SQUARED 0.805, read-out: LUCIFERASE INFECTION ASSAY - IC50): 2.41 µM
Oc1ccc(Cl)cc1/C=C/c1ccc2cccc(O)c2n1 | 6.73 µM | IC50 (HEPG2TOX_HILL_SLOPE 5.53, HEPG2TOX_R_SQUARED 0.986, PBLUC_HILL_SLOPE 37.8, PBLUC_R_SQUARED 0.36, read-out: LUCIFERASE INFECTION ASSAY - IC50): 6.35 µM
COc1ccc(CCn2cnc3c(cnn3-c3ccc(C)cc3)c2=O)cc1 | 0.133 µM | IC50 (FFLUC_HILL_SLOPE 2.44, FFLUC_R_SQUARED 0.232, HEPG2TOX_HILL_SLOPE 1.29, HEPG2TOX_R_SQUARED 0.958, PBLUC_HILL_SLOPE 8.61, PBLUC_R_SQUARED 0.878, read-out: LUCIFERASE INFECTION ASSAY - IC50): 0.103 µM
O=C(COc1nnc2ccccn12)Nc1cccc2ccccc12 | > 10 µM | IC50 [1]: > 10 µM
O=S(=O)(NCCNc1ncnc2ccccc12)c1cccc(Cl)c1 | > 10 µM | IC50 (HEPG2TOX_HILL_SLOPE 0.939, HEPG2TOX_R_SQUARED 0.791, read-out: LUCIFERASE INFECTION ASSAY - IC50): > 10 µM
COC(=O)C1=C(Sc2ccc(Cl)cc2)CSC1 | > 11.5 µM | IC50 (PBLUC_HILL_SLOPE 0.458, PBLUC_R_SQUARED 0.122, read-out: LUCIFERASE INFECTION ASSAY - IC50): > 11.5 µM
S=C(NCCc1ccc(Cl)cc1Cl)NC1CC2CCC1C2 (stereo not drawn) | > 10 µM | IC50 [1]: > 10 µM
COc1ccc(C(C)(C)C)cc1NC(=O)c1ccc(Cl)c(S(=O)(=O)N2CCc3ccccc32)c1 | > 10 µM | IC50 (FFLUC_HILL_SLOPE 21.6, FFLUC_R_SQUARED 0.0861, HEPG2TOX_HILL_SLOPE 0.0233, HEPG2TOX_R_SQUARED 0.0468, PBLUC_HILL_SLOPE 7.45, PBLUC_R_SQUARED 0.387, read-out: LUCIFERASE INFECTION ASSAY - IC50): 8.38 µM
Cc1nn(Cc2nnc(SCC(=O)c3ccc(Cl)cc3)n2C)c(C)c1[N+](=O)[O-] | > 7.84 µM | IC50 [1]: > 7.84 µM
O=C(Nc1cccc(S(=O)(=O)NC2CC2)c1)c1ccccc1SCc1ccco1 | 4.79 µM | IC50 (FFLUC_HILL_SLOPE 1.74, FFLUC_R_SQUARED 0.575, HEPG2TOX_HILL_SLOPE 9.06, HEPG2TOX_R_SQUARED 0.765, PBLUC_HILL_SLOPE 112, PBLUC_R_SQUARED 0.186, read-out: LUCIFERASE INFECTION ASSAY - IC50): 4.7 µM
COc1ccc(-c2cnc3ccc(-c4cccc(OC(F)(F)F)c4)nn23)cc1OC | 1.23 µM | IC50 (FFLUC_HILL_SLOPE 21.1, FFLUC_R_SQUARED 0.421, PBLUC_HILL_SLOPE 16.1, PBLUC_R_SQUARED 0.675, read-out: LUCIFERASE INFECTION ASSAY - IC50): 1.08 µM
